Data set [1] in a line: Maximum solubility of clobetasol propionate in solvent oils, assessed visually (clarity/cloudiness). It is filed as physicochemical. On the procedure: (§1) The maximum solubility of clobetasol propionate was studied in various solvent oils according to the invention, in order to allow the choice most suitable for the concentration of active agent to be solubilized.
The solubility can also be assessed visually. Thus, minute proportions of the active agent are gradually added to the solvent oil with stirring. Visual observation of the clarity of the solution is carried out.

Data set [2] can be described thus: Maximum solubility of clobetasol propionate in solvent oils, UV assaying method. Type of data set: physicochemical. The method, then: as §1
It is measured by the UV assaying method.
Saturated solutions are prepared according to the following protocol:
0.1% of clobetasol propionate is added to the oily excipient.
The entire mixture is stirred overnight and then left for two hours without stirring.
The solutions for UV-assaying are then prepared by taking the supernatant 0.1 g of this saturated solution is weighed into a 100 ml volumetric flask and then made up to 100 ml with absolute ethanol. The assaying makes it possible to obtain data for maximum solubility of the active agent in the solvent oil under consideration.

In the case of `CCC(=O)O[C@]1(C(=O)CCl)[C@@H](C)C[C@H]2[C@@H]3CCC4=CC(=O)C=C[C@]4(C)[C@@]3(F)[C@@H](O)C[C@@]21C` [clobetasol propionate], the Visual solubility is given as 0.25% in data set [1] (solvent: Caprylic/capric triglycerides, maximum solubility); “insoluble” in data set [1] (solvent: Dioctyl ether); 0.14% in data set [1] (solvent: Isopropyl palmitate, maximum solubility); 0.16% in data set [1] (solvent: Octyldodecanol, maximum solubility). The “UV Solubility at 266 nm” value turned out to be 0.16% in data set [2] (solvent: Cetearyl isononanoate); 0.12% in data set [2] (solvent: Dioctyl ether); 0.79% in data set [2] (solvent: Ethyl oleate); 0.17% in data set [2] (solvent: Isopropyl palmitate); 0.45% in data set [2] (solvent: Oleic acid); 0.86% in data set [2] (solvent: Oleyl alcohol).
